# Source: US20070093520A1, “Method of treatment of diarrhea-predominant irritable bowel syndrome in a subject” (priority 2005, published 2007)
# System: diarrhea-predominant IBS subjects
# Format: in vivo, human
# Details: TEAE incidence, 2 mg, Safety Population
# Method: The study was performed in approximately 150 study centers. Approximately 1600 eligible subjects were to be given cilansetron 2 mg TID. At Visit 1, pre-treatment assessments were conducted. […] Subjects were to return to the study site one month later for Visit 3 (Day 31) for their first interim assessment. […] All subjects who discontinued from the study were to have the same post-study assessments required at Visit 7 performed at their early termination visit. […]
# Stool specimens were analyzed at every visit for occult blood. An independent GERB had been established to provide advice on GI AEs during the course of the study.
# Adverse events were assessed at Baseline, at each clinic visit, and at the end of the study (Month 12 or the early termination visit). All AEs, which occurred during the study were followed up in accordance with good medical practice until resolved or judged no longer clinically significant, or if a condition was chronic, until fully characterized. Adverse events could occur in the specified follow-up period and, regardless of the interval since the last administration of the study medication, were treated in the same manner as an AE which occurred during the treatment with study medication. Each AE was evaluated for duration, severity, seriousness, and causal relationship to the investigational drug. The action taken and the outcome were also recorded.
# Specifically, subjects who were lost to follow-up and had no post-Baseline contact with the site were excluded from the Safety population. The subjects who discontinued from the study due to lost to follow-up were identified based on the information collected on the study termination CRF page.
# After the pretreatment assessment at Visit 1 (Days […] to −3), subjects were to return to the study site for a Baseline assessment and start the treatment at Visit 2 (Day 1).
# For the by time-interval analyses of disposition, prevalence of AEs, and of markedly abnormal and predefined changes in laboratory values, vital signs, and ECGs, the following interval windows were used:
# Adverse events that were already present prior to the first dose of cilansetron study medication but increased in severity afterwards were considered as treatment-emergent.
# The 5% cutoff point was based on the incidence within higher level terms.
# Subjects were counted at most once for each primary system organ class and preferred term. Serious AEs that resolved prior to receiving study medication or occurred more than 30 days after the last dose of study medication were not included in the incidence tables. A listing of all SAEs is presented; SAEs with onset prior to receiving study medication or more than 30 days after discontinuation of study medication were flagged. The listing presents lower level term and preferred term of the SAE, severity, action taken, outcome, and relationship of the SAE, start and stop date of the SAE, study day of onset of the SAE, age, race, and sex.
smiles,measurement,setting,value
"Cc1nccn1C[C@H]1CCc2c(c3cccc4c3n2CCC4)C1=O [cilansetron, (R)-(−)-4,5,6,8,9,10-hexahydro-10-[(2-methyl-1H-imidazol-1-yl)methyl]-11H-pyrido-[3,2,1-jk]-carbazol-11-one]",Neurosis NOS,PT,5 (<1%) n (%)
same,Nightmare,PT,2 (<1%) n (%)
same,Nocturia,PT,1 (<1%) n (%)
same,Oedema Peripheral,PT,1 (<1%) n (%)
same,Oligomenorrhoea NOS*,PT,2 (<1%) n (%)
same,Onychoschizia,PT,1 (<1%) n (%)
same,Osteoarthritis Aggravated,PT,1 (<1%) n (%)
same,Osteochondrosis,PT,1 (<1%) n (%)
same,Osteoporosis NOS,PT,4 (<1%) n (%)
same,Ovarian Cyst*,PT,2 (<1%) n (%)
same,Overweight,PT,1 (<1%) n (%)
same,Pain NOS,PT,5 (<1%) n (%)
same,Pain in Limb,PT,11 (<1%) n (%)
same,Palpitations,PT,5 (<1%) n (%)
same,Panic Disorder NOS,PT,4 (<1%) n (%)
same,Peripheral Swelling,PT,3 (<1%) n (%)
same,Pharyngitis,PT,27 (2%) n (%)
same,Pharyngolaryngeal Pain,PT,2 (<1%) n (%)
same,Photodermatosis,PT,1 (<1%) n (%)
same,Polyarthritis,PT,1 (<1%) n (%)
same,Polymenorrhoea*,PT,1 (<1%) n (%)
same,Polymyalgia,PT,1 (<1%) n (%)
same,Polyuria,PT,2 (<1%) n (%)
same,Post Procedural Haemorrhage,PT,1 (<1%) n (%)
same,Post Procedural Pain,PT,4 (<1%) n (%)
same,Postmenopausal Haemorrhage*,PT,1 (<1%) n (%)
same,Postmenopausal Symptoms*,PT,1 (<1%) n (%)
same,Productive Cough,PT,1 (<1%) n (%)
same,Prostatic Pain*,PT,1 (<1%) n (%)
same,Prostatitis*,PT,3 (<1%) n (%)
same,Proteinuria,PT,2 (<1%) n (%)
same,Pruritus Generalised,PT,2 (<1%) n (%)
same,Pruritus NOS,PT,11 (<1%) n (%)
same,Psoriasis,PT,5 (<1%) n (%)
same,Pyoderma,PT,1 (<1%) n (%)
same,Pyrexia,PT,20 (1%) n (%)
same,Radius Fracture,PT,2 (<1%) n (%)
same,Rash Generalised,PT,3 (<1%) n (%)
same,Rash NOS,PT,10 (<1%) n (%)
same,Rash Papular,PT,1 (<1%) n (%)
same,Rash Pruritic,PT,1 (<1%) n (%)
same,Renal Colic,PT,4 (<1%) n (%)
same,Renal Cyst NOS,PT,1 (<1%) n (%)
same,Respiratory Disorder NOS,PT,1 (<1%) n (%)
same,Restlessness,PT,1 (<1%) n (%)
same,Rheumatoid Arthritis,PT,1 (<1%) n (%)
same,Rheumatoid Arthritis Aggravated,PT,1 (<1%) n (%)
same,Rhinitis Allergic NOS,PT,4 (<1%) n (%)
same,Rhinitis NOS,PT,4 (<1%) n (%)
same,Rhinorrhoea,PT,2 (<1%) n (%)
same,Rib Fracture,PT,2 (<1%) n (%)
same,Road Traffic Accident,PT,1 (<1%) n (%)
same,Rosacea,PT,1 (<1%) n (%)
same,Scar,PT,1 (<1%) n (%)
same,Scleroderma,PT,1 (<1%) n (%)
same,Seborrhoea,PT,1 (<1%) n (%)
same,Sensation of Foreign Body NOS,PT,1 (<1%) n (%)
same,Sinus Arrhythmia,PT,2 (<1%) n (%)
same,Sinus Bradycardia,PT,3 (<1%) n (%)
same,Sinus Congestion,PT,1 (<1%) n (%)
same,Sinus Tachycardia,PT,9 (<1%) n (%)
same,Skin Disorder NOS,PT,1 (<1%) n (%)
same,Skin Eruption,PT,1 (<1%) n (%)
same,Skin Inflammation NOS,PT,1 (<1%) n (%)
same,Skin Necrosis,PT,1 (<1%) n (%)
same,Skin Odour Abnormal,PT,1 (<1%) n (%)
same,Skin Ulcer,PT,1 (<1%) n (%)
same,Sleep Disorder NOS,PT,2 (<1%) n (%)
same,Sneezing,PT,2 (<1%) n (%)
same,Snoring,PT,1 (<1%) n (%)
same,Soft Tissue Injury NOS,PT,1 (<1%) n (%)
same,Solar Keratosis,PT,1 (<1%) n (%)
same,Spinal Osteoarthritis,PT,1 (<1%) n (%)
same,Spondylosis,PT,2 (<1%) n (%)
same,Sputum Discoloured,PT,1 (<1%) n (%)
same,Stress Incontinence,PT,2 (<1%) n (%)
same,Stress Symptoms,PT,8 (<1%) n (%)
same,Supraventricular Extrasystoles,PT,1 (<1%) n (%)
same,Sweating Increased,PT,7 (<1%) n (%)
same,Tachycardia NOS,PT,3 (<1%) n (%)
same,Tachycardia Paroxysmal NOS,PT,1 (<1%) n (%)
same,Tendon Injury,PT,1 (<1%) n (%)
same,Tendonitis,PT,3 (<1%) n (%)
same,Thermal Burn,PT,1 (<1%) n (%)
same,Thirst,PT,1 (<1%) n (%)
same,Toe Deformities NOS,PT,1 (<1%) n (%)
same,Tonsillar Hypertrophy,PT,1 (<1%) n (%)
same,Traumatic Chest Injury NOS,PT,1 (<1%) n (%)
same,Upper Respiratory Tract Inflammation,PT,1 (<1%) n (%)
same,Urethral Stricture,PT,1 (<1%) n (%)
same,Urinary Frequency,PT,5 (<1%) n (%)
same,Urinary Incontinence,PT,4 (<1%) n (%)
same,Urinary Incontinence Aggravated,PT,1 (<1%) n (%)
same,Urine Odour Abnormal,PT,1 (<1%) n (%)
same,Urticaria NOS,PT,4 (<1%) n (%)
same,Uterine Cervical Erosion*,PT,1 (<1%) n (%)
same,Uterine Prolapse*,PT,1 (<1%) n (%)
same,Vaginal Prolapse*,PT,1 (<1%) n (%)
same,Ventricular Extrasystoles,PT,3 (<1%) n (%)
same,Ventricular Hypertrophy,PT,1 (<1%) n (%)
same,Vitamin B12 Deficiency,PT,2 (<1%) n (%)
same,Weakness,PT,14 (<1%) n (%)
same,Weight Fluctuation,PT,1 (<1%) n (%)
same,Wheezing,PT,1 (<1%) n (%)
same,Wrist Fracture,PT,2 (<1%) n (%)
same,Cardiac Disorders,SOC,46 (3%) n (%)
same,General Disorders and Administration Site Conditions,SOC,85 (6%) n (%)
same,"Injury, Poisoning and Procedural Complications",SOC,59 (4%) n (%)
same,Metabolism and Nutrition Disorders,SOC,54 (4%) n (%)
same,Psychiatric Disorders,SOC,74 (5%) n (%)
same,Renal and Urinary Disorders,SOC,40 (3%) n (%)
same,Reproductive System and Breast Disorders,SOC,38 (3%) n (%)
same,"Respiratory, Thoracic and Mediastinal Disorders",SOC,91 (6%) n (%)
same,Skin and Subcutaneous Tissue Disorders,SOC,70 (5%) n (%)
